Experimental data reported in patent US9139577B2, “Sulfoximine substituted quinazolines for pharmaceutical compositions” (Boehringer Ingelheim International GmbH, priority 2013, dated 2015).

Assays:
MNK1 = MNK1 (Homo sapiens (Human), UniProt Q9BUB5); assay: MNK1 in vitro kinase assay (Assay 3), Z'-LYTE; type: biochemical; details: for inhibition at 1 µM: compound concentration of 1 μM, read-out: MNK1 % INH
Text: C. MNK1 In vitro Kinase Assay (Assay 3)
MNK1 Data can be obtained from the MNK1 Z′-LYTE® assay. The MNK1 Z′-LYTE® screening protocol and assay conditions are also described on www.invitrogen.com.
The assay is described as follows:
The Z′-LYTE® biochemical assay employs a fluorescence-based, coupled-enzyme format and is based on the differential sensitivity of phosphorylated and non-phosphorylated peptides to proteolytic cleavage. The peptide substrate is labeled with two fluorophores—one at each end—that make up a FRET pair.
In the primary reaction, the kinase transfers the gamma-phosphate of ATP to a single tyrosine, serine or threonine residue in a synthetic FRET-peptide. In the secondary reaction, a site-specific protease recognizes and cleaves non-phosphorylated FRET-peptides. Phosphorylation of FRET-peptides suppresses cleavage by the Development Reagent. Cleavage disrupts FRET between the donor (i.e., coumarin) and acceptor (i.e., fluorescein) fluorophores on the FRET-peptide, whereas uncleaved, phosphorylated FRET-peptides maintain FRET. A ratiometric method, which calculates the ratio (the Emission Ratio) of donor emission to acceptor emission after excitation of the donor fluorophore at 400 nm, is used to quantitate reaction progress, as shown in the equation below.
ASSAY SETUP: The inhibition of kinase activity of MNK1a was assessed using pre-activated GST-MNK1a. The 2×MKNK1 (MNK1) mixture is prepared in 50 mM HEPES pH 7.5, 0.01% BRIJ-35, 10 mM MgCl2, 4 mM MnCl2, 1 mM EGTA, 2 mM DTT.
The Test Compounds are screened in 1% DMSO (final) in the well.
All Peptide/Kinase Mixtures are diluted to a 2× working concentration in the MNK1 Kinase Buffer.
All ATP Solutions are diluted to a 4× working concentration in Kinase Buffer (50 mM HEPES pH 7.5, 0.01% BRIJ-35, 10 mM MgCl2, 1 mM EGTA).
Development Reagent Solution:
The Development Reagent is diluted in Development Buffer
1. 2.5 μL—4× Test Compound
2. 5 μL—2× Peptide/Kinase Mixture
5. 60-minute Kinase Reaction incubation at room temperature
6. 5 μl—Development Reagent Solution
8. 60-minute Development Reaction incubation at room temperature
9. Read on fluorescence plate reader and analyze the data
The following equations are used for each set of data points: […]
Correction for Background Fluorescence: FlSample-FlTCFl Ctl
% Phosphorylation (% Phos): 1−((Emission Ratio×F100%)−C100%)/((C0%−C100%)+[Emission Ratio×(F100%−F0%)])*100%
% Inhibition: 1−(% PhosSample/% Phos0% Inhibition Ctl)*100
Fl=Fluorescence Intensity
C100%=Average Coumarin emission signal of the 100% Phos. Control
C0%=Average Coumarin emission signal of the 0% Phos. Control
F100%=Average Fluorescein emission signal of the 100% Phos. Control
F0%=Average Fluorescein emission signal of the 0% Phos. Control
SelectScreen® Kinase Profiling Service uses XLfit from IDBS.

MNK2a = MNK2a (Homo sapiens (Human), UniProt Q9HBH9); assay: MNK2a in vitro kinase assay (Assay 2), ADP-Glo; type: biochemical; details: read-out: MNK2 IC50
MNK2a, sequence (Q9HBH9 whole entry): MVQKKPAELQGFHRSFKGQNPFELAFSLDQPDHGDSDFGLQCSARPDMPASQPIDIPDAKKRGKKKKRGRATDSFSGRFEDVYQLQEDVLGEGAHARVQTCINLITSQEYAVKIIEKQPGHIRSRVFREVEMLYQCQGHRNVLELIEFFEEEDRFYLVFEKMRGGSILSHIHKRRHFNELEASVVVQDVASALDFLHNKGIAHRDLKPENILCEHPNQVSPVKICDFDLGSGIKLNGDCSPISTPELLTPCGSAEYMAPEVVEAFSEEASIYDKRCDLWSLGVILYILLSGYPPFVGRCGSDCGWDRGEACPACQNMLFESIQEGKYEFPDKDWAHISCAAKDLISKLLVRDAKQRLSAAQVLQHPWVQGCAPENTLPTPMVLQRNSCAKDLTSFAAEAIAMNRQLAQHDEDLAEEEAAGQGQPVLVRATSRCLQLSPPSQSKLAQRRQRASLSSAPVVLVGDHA

MNK1, sequence (Q9BUB5 other isoform, or with tags, fused parts or gaps): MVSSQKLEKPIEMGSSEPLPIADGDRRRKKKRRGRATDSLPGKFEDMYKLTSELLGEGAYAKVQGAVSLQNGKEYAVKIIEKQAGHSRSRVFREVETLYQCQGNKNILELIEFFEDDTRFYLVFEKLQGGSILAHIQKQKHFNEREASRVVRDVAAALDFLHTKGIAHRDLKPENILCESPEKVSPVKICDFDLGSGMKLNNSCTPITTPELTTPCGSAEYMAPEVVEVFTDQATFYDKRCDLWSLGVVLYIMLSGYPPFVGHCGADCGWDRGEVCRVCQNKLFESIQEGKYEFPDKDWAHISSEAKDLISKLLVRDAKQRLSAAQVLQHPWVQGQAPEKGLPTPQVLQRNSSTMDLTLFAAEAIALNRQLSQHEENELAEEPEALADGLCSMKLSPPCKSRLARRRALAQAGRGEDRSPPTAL

| inhibition at 1 µM (MNK1) | IC50 (MNK2a) | IC50 (MNK1) | Structure (SMILES) |
| --- | --- | --- | --- |
| 100% | 1 nM | – | Cc1cc(N=S2(=O)CCC2)cc2ncnc(Nc3ccc(F)cc3O[C@H](C)C(=O)N[C@@H](C)C(F)(F)F)c12 [Example 4.104] |
| – | 1 nM | 25 nM | Cc1cc([C@@H](C)Oc2cc(F)ccc2Nc2ncnc3cc(N=S(C)(C)=O)cc(C)c23)on1 [Example 2.008] |
| 88% | 5 nM | – | Cc1cc(N=S(C)(C)=O)cc2ncnc(Nc3ccc(F)cc3O[C@H](C)C(=O)N(C)CC(C)C)c12 [Example 4.013] |
| 98% | 4 nM | – | Cc1cc(N=S(C)(C)=O)cc2ncnc(Nc3ccc(F)cc3O[C@H](C)C(=O)NCC(C)O)c12 (stereo partly shown) [Example 4.020] |
| 99% | 2 nM | – | Cc1cc(N=S(C)(C)=O)cc2ncnc(Nc3ccc(F)cc3O[C@H](C)C(=O)NC3COC3)c12 [Example 4.009] |
| 96% | 6 nM | – | Cc1cc(C(C)Oc2cc(C(N)=O)ccc2Nc2ncnc3cc(N=S(C)(C)=O)cc(C)c23)on1 (stereo not shown) [Example 1.012] |
| 96% | 2 nM | – | Cc1cc(N=S2(=O)CCCC2)cc2ncnc(Nc3ccc(F)cc3O[C@H](C)C(=O)N(C)C(C)C)c12 [Example 4.003] |
| – | 2 nM | 40 nM | Cc1cc(N=S2(=O)CCCC2)cc2ncnc(Nc3ccc(F)cc3O[C@H](C)C(F)(F)F)c12 [Example 2.048] |
| 94% | 3 nM | – | Cc1cc(N=S2(=O)CCCC2)cc2ncnc(Nc3ccc(F)cc3O[C@H](C)C(=O)N(C)CC(C)C)c12 [Example 4.052] |
| 90% | 4 nM | – | COC1CCN(C(=O)[C@@H](C)Oc2cc(F)ccc2Nc2ncnc3cc(N=S4(=O)CCCC4)cc(C)c23)CC1 [Example 4.059] |
| – | 3 nM | 51 nM | CCNC(=O)[C@@H](C)Oc1cc(F)ccc1Nc1ncnc2cc(N=S(C)(C)=O)cc(C)c12 [Example 4.034] |
| 96% | 5 nM | – | CC(CF)Oc1cc(F)ccc1Nc1ncnc2cc(N=S(C)(C)=O)cc(F)c12 (stereo not shown) [Example 1.006] |
| 38% | 83 nM | – | Cc1cc(N=S(C)(C)=O)cc2ncnc(Nc3ccc(F)cc3O[C@H](C)CNS(C)(=O)=O)c12 [Example 5.003] |
| 86% | 2 nM | – | Cc1cc(N=S(C)(C)=O)cc2ncnc(Nc3ccc(F)cc3OC[C@H]3CCC(=O)N3)c12 [Example 3.038] |
| 97% | 5 nM | – | Cc1cc(N=S(C)(C)=O)cc2ncnc(Nc3ccc(C(N)=O)cc3OC(C)C)c12 [Example 1.014] |
| 48% | 24 nM | – | Cc1cc(N=S(C)(C)=O)cc2ncnc(Nc3ccc(F)cc3OC(C)CC3CCOCC3)c12 (stereo not shown) [Example 3.019] |
| 99% | 5 nM | – | Cc1cc(N=S(C)(C)=O)cc2ncnc(Nc3ccc(F)cc3O[C@H](C)C(=O)NC3CCC3)c12 [Example 4.023] |
| – | 1 nM | 54 nM | Cc1cc([C@@H](C)Oc2cc(F)ccc2Nc2ncnc3cc(N=S(C)(C)=O)cc(Cl)c23)on1 [Example 1.019] |
| 92% | 6 nM | – | Cc1cc(N=S(C)(C)=O)cc2ncnc(Nc3ccc(F)cc3O[C@H](C)C(=O)NC3CCOCC3)c12 [Example 4.019] |
| 88% | 7 nM | – | CC(=O)NC[C@H](C)Oc1cc(F)ccc1Nc1ncnc2cc(N=S(C)(C)=O)cc(C)c12 [Example 5.002] |
| 64% | 26 nM | – | O=S1(=Nc2cc(C(F)(F)F)c3c(Nc4ccc(F)cc4OC(CF)CF)ncnc3c2)CCNCC1 [Example 1.009] |
| 96% | 1 nM | – | Cc1cc(N=S2(=O)CCCC2)cc2ncnc(Nc3cccnc3OCC3CCOC3)c12 (stereo not shown) [Example 2.005] |
| 82% | 5 nM | – | Cc1cc(N=S(C)(C)=O)cc2ncnc(Nc3ccc(F)cc3OC[C@@H]3CCC(=O)N3)c12 [Example 3.043] |
| 78% | 8 nM | – | CCN(CC)C(=O)[C@@H](C)Oc1cc(F)ccc1Nc1ncnc2cc(N=S(C)(C)=O)cc(C)c12 [Example 4.031] |

| inhibition at 1 µM (MNK1) | IC50 (MNK2a) | IC50 (MNK1) | Structure (SMILES) |
| --- | --- | --- | --- |
| 64% | 1 nM | 27 nM | C[C@@H](Oc1cc(F)ccc1Nc1ncnc2cc(N=S3(=O)CCC3)cc(Cl)c12)C(=O)NCC(F)(F)F [Example 4.138] |
| 97% | 4 nM | – | COCC(=O)N1CCS(=O)(=Nc2cc(C)c3c(Nc4ccc(F)cc4O[C@H](C)c4cc(C)no4)ncnc3c2)CC1 [Example 5.007] |
| 72% | 17 nM | – | Cc1cc(N=S(C)(C)=O)cc2ncnc(Nc3ccc(F)cc3OCC3(C)COC3)c12 [Example 3.029] |
| 76% | 13 nM | – | Cc1cc(N=S(C)(C)=O)cc2ncnc(Nc3ccc(F)cc3OC(C)C(C)(C)O)c12 (stereo not shown) [Example 2.003] |
| 45% | 3 nM | – | Cc1cc(N=S(C)(C)=O)cc2ncnc(Nc3ccc(F)cc3OC(C)Cn3ccnc3C)c12 (stereo not shown) [Example 3.015] |
| 62% | 14 nM | – | COCCN(C)C(=O)[C@@H](C)Oc1cc(F)ccc1Nc1ncnc2cc(N=S(C)(C)=O)cc(C)c12 [Example 4.055] |
| 88% | 13 nM | – | Cc1cc(N=S(C)(C)=O)cc2ncnc(Nc3ccc(F)cc3O[C@H](C)C(=O)N3CCCCC3)c12 [Example 4.062] |
| 45% | – | – | Cc1cc(N=S(C)(C)=O)cc2ncnc(Nc3ccc(F)cc3O[C@H](C)C(=O)N(C)CCc3ccccc3)c12 [Example 4.037] |
| 70% | – | – | COC1CCN(C(=O)[C@@H](C)Oc2cc(F)ccc2Nc2ncnc3cc(N=S(C)(C)=O)cc(C)c23)CC1 [Example 4.073] |
| – | 18 nM | – | C[C@@H](Oc1cc(F)ccc1Nc1ncnc2cc(N=S(C)(=O)C(C)(C)C)cc(F)c12)C(=O)NCC(F)(F)F (stereo partly shown) [Example 2.040] |
| – | 3 nM | – | COc1cc(N=S(C)(C)=O)cc2ncnc(Nc3cccnc3O[C@H](C)C(=O)NCC(F)(F)F)c12 [Example 6.004] |
| – | 4 nM | – | Cc1cc(N=S(C)(C)=O)cc2ncnc(Nc3ccc(F)cc3O[C@H](CF)C(=O)NCC(F)(F)F)c12 [Example 7.013] |
| – | 2 nM | – | Cc1cc(N=S2(=O)CCC2)cc2ncnc(Nc3ccc(F)cc3O[C@H](C)C(=O)NCCCF)c12 [Example 4.144] |
| – | 1 nM | – | C[C@H](NC(=O)[C@@H](C)Oc1cc(F)ccc1Nc1ncnc2cc(N=S3(=O)CCC3)cc(Cl)c12)C(F)(F)F [Example 4.096] |
| – | 42 nM | – | Cc1cc(N=S(C)(C)=O)cc2ncnc(Nc3ccc(F)cc3OC(C)c3ccnn3C)c12 (stereo not shown) [Example 3.023] |
| – | 3 nM | – | COc1cc(N=S2(=O)CCC2)cc2ncnc(Nc3ccc(F)cc3O[C@H](C)C(=O)NCC(F)(F)F)c12 [Example 2.047] |
| – | 3 nM | – | Cc1cc(N=S(C)(=O)C2CCNC2)cc2ncnc(Nc3ccc(F)cc3O[C@H](C)C(=O)NCC(F)(F)F)c12 (stereo partly shown) [Example 2.028] |
| – | 2 nM | – | C[C@H](NC(=O)[C@@H](C)Oc1cc(F)ccc1Nc1ncnc2cc(N=S(C)(C)=O)cc(Cl)c12)C(F)(F)F [Example 4.135] |
| – | 2 nM | – | C[C@@H](Oc1cc(F)ccc1Nc1ncnc2cc(N=S3(=O)CC(C)(C)C3)cc(Cl)c12)C(=O)NCC(F)(F)F [Example 2.037] |
| – | 3 nM | – | CC(NC(=O)[C@@H](C)Oc1cc(F)ccc1Nc1ncnc2cc(N=S3(=O)CCC3)cc(F)c12)C(F)F (stereo partly shown) [Example 4.130] |
| – | 1 nM | – | Cc1cc(N=S2(=O)CCC2)cc2ncnc(Nc3ccc(Cl)cc3O[C@H](C)C(=O)NCC(F)F)c12 [Example 4.111] |
| – | 5 nM | – | COc1cc(N=S2(=O)CCC2)cc2ncnc(Nc3ccc(F)cc3O[C@H](C)C(=O)N[C@@H](C)C(F)(F)F)c12 [Example 6.001] |
| – | 4 nM | – | C[C@@H](Oc1cc(F)ccc1Nc1ncnc2cc(N=S3(=O)CCCC3)cc(F)c12)C(=O)NCC#N [Example 2.033] |

| Structure (SMILES) | inhibition at 1 µM (MNK1) | IC50 (MNK2a) | IC50 (MNK1) |
| --- | --- | --- | --- |
| C[C@H](NC(=O)[C@@H](C)Oc1cc(F)ccc1Nc1ncnc2cc(N=S3(=O)CCC3)cc(F)c12)C(F)(F)F [Example 4.136] | 93% | 1 nM | 29 nM |
